Patent US11638707B2, “Substituted amino triazoles useful as chitinase inhibitors” (Molecure S.A., priority 2019, dated 2023)

Experiments:
hERG channel = hERG channel (Homo sapiens (Human), UniProt Q12809); assay: Human ERG channel binding assay (fluorescence polarization); conditions: Table 1; tracer displacement, 4 h at room temperature
Protocol: Human ERG Channel Binding Assay
Fluorescence polarization assay based on the principle of fluorescence polarization where a red-shifted fluorescent tracer is displaced from the hERG channel by compounds that bind to the channel was used to establish the binding of the compounds to hERG channel. […] Briefly, the compounds in serial dilutions were incubated with a membrane fraction containing hERG channel protein and a high-affinity red fluorescent hERG channel ligand in black 384-well plate. […] The IC50 values were calculated using GraphPad Prism.

recombinant human AMCase = recombinant human AMCase (Homo sapiens (Human), UniProt Q9BZP6); assay: Human AMCase activity assay; format: biochemical; conditions: citrate buffer pH 5.2, 37° C., 60 minutes, read-out: hAMCase, IC50
Protocol: (§1) The assay was run in the 96-well plate format, each reaction in the total volume of 100 μL. 4-Methylumbelliferyl B-D-N,N′-diacetylchitobioside hydrate was used as a substrate for the enzyme. Upon hydrolysis by AMCase, the substrate releases 4-methylumbelliferyl (4MU) that, when ionized in basic pH, emits fluorescence at 460 nm. Briefly, 40 μL of a substrate was added to each well, followed by 10 μL of compound dilution and 50 μL of hAMCase recombinant enzyme solution. The reaction was carried out in citrate buffer, pH 5.2, in the dark, at 37° C. for 60 minutes with shaking. […] The IC50 values were calculated using GraphPad Prism.

recombinant human CHIT1 = recombinant human CHIT1 (Homo sapiens (Human), UniProt Q13231); assay: Human CHIT1 activity assay; format: biochemical; conditions: recombinant human CHIT1, citrate buffer pH 5.2, 37° C., 60 minutes; read-out: hCHIT1, IC50
Protocol: as §1, with “4-methylumbelliferyl β-D-N,N′,N″-triacetylchitotriose” for “4-Methylumbelliferyl B-D-N,N′-diacetylchitobioside hydrate”, “CHIT1,” for “AMCase,”, “CHIT1” for “hAMCase”

recombinant human AMCase, sequence (Q9BZP6 22-476): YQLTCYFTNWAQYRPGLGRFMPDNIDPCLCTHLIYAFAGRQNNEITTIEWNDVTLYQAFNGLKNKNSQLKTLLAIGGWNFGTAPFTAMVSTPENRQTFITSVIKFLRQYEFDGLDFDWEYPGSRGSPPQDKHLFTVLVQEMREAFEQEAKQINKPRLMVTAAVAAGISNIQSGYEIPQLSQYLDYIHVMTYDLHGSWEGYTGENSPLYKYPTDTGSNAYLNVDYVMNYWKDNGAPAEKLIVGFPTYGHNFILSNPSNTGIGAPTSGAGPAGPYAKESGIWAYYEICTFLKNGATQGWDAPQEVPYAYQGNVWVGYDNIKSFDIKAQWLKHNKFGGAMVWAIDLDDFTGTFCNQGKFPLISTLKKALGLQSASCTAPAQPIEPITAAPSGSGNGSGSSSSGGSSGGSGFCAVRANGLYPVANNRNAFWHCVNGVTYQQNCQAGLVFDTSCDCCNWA
recombinant human CHIT1, sequence (Q13231 22-466): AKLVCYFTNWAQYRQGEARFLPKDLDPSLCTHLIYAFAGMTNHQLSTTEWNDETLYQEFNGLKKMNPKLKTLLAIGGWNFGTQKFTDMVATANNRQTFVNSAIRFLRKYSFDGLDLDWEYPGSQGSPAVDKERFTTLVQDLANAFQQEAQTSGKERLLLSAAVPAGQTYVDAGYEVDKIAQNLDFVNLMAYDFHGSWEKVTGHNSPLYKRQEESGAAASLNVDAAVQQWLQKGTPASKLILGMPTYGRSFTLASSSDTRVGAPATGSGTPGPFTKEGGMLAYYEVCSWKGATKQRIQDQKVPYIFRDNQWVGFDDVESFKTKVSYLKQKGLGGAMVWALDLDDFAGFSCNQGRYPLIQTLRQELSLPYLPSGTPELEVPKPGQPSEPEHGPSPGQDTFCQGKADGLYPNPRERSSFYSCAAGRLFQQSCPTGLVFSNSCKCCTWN
hERG channel, sequence (Q12809 whole entry): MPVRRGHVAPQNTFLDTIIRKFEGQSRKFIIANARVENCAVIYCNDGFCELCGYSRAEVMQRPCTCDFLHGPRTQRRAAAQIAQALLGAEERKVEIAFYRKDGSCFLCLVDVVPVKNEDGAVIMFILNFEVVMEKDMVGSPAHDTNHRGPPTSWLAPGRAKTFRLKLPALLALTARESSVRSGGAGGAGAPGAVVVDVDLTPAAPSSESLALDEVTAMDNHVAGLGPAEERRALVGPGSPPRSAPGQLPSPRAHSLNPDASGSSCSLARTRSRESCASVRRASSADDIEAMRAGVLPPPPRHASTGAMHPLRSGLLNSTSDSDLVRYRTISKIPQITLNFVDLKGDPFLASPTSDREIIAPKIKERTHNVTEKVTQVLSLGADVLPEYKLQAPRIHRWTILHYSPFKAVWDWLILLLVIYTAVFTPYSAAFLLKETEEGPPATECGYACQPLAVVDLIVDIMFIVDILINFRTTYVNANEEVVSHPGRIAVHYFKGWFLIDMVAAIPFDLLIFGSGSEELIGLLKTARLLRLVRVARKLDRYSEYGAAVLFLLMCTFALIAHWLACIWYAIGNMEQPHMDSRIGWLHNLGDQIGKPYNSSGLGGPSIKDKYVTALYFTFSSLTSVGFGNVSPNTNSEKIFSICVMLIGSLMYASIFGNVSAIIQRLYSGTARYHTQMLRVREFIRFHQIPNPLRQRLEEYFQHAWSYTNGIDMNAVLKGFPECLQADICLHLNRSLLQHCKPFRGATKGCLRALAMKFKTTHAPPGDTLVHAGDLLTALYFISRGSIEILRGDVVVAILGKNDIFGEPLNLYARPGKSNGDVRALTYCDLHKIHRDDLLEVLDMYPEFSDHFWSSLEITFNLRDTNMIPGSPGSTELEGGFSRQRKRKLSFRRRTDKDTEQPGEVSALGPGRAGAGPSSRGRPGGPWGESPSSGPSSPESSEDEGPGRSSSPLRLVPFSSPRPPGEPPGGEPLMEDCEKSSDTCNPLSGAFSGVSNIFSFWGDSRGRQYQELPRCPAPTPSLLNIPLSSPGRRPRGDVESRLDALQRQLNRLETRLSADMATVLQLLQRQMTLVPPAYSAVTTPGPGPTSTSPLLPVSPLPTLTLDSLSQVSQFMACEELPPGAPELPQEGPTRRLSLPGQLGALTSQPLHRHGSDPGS

SMILES	IC50 (hERG channel) [µM]	IC50 (recombinant human AMCase) [nM]	IC50 (recombinant human CHIT1) [nM]
Nc1nnc(N2CCC(N3C[C@H](CF)OC[C@@H]3Cc3ccc(Cl)cc3)CC2)[nH]1 [Example 3, 5-(4-((2R,5S)-5-(4-chlorobenzyl)-2-(fluoromethyl)morpholino)piperidin-1-yl)-4H-1,2,4-triazol-3-amine 2,2,2-trifluoroacetate]	> 100	< 100	< 100
Nc1nnc(N2CCC(N3C[C@H](Cc4nn[nH]n4)OC[C@@H]3Cc3ccc(Cl)cc3)CC2)[nH]1 [Example 4, 5-(4-((2S,5S)-2-((2H-tetrazol-5-yl)methyl)-5-(4-chlorobenzyl)morpholino)-piperidin-1-yl)-4H-1,2,4-triazol-3-amine 2,2,2-trifluoroacetate]	> 100	< 100	< 100
Cn1nnc(C[C@H]2CN(C3CCN(c4nnc(N)[nH]4)CC3)[C@@H](Cc3ccc(Cl)cc3)CO2)n1 [Example 5, 5-(4-((2S,5S)-5-(4-chlorobenzyl)-2-((2-methyl-2H-tetrazol-5-yl)methyl)-morpholino)piperidin-1-yl)-4H-1,2,4-triazol-3-amine 2,2,2-trifluoroacetate]	25 to 100	< 100	< 100
N#CC[C@H]1CN(C2CCN(c3nnc(N)[nH]3)CC2)[C@@H](Cc2ccc(Cl)cc2)CO1 [Example 6, 2-((2S,5S)-4-(1-(5-amino-4H-1,2,4-triazol-3-yl)piperidin-4-yl)-5-(4-chlorobenzyl)-morpholin-2-yl)acetonitrile 2,2,2-trifluoroacetate]	> 100	< 100	< 100
Nc1nnc(N2CCC(N3C[C@H](CN4CCCC4=O)OC[C@@H]3Cc3ccc(Cl)cc3)CC2)[nH]1 [Example 7, 1-(((2R,5S)-4-(1-(5-amino-4H-1,2,4-triazol-3-yl)piperidin-4-yl)-5-(4-chlorobenzyl)-morpholin-2-yl)methyl)pyrrolidin-2-one 2,2,2-trifluoroacetate]	> 100	< 100	< 100
N#Cc1cnn(C[C@H]2CN(C3CCN(c4nnc(N)[nH]4)CC3)[C@@H](Cc3ccc(Cl)cc3)CO2)c1 [Example 8, 1-(((2R,5S)-4-(1-(5-amino-4H-1,2,4-triazol-3-yl)piperidin-4-yl)-5-(4-chlorobenzyl)-morpholin-2-yl)methyl)-1H-pyrazole-4-carbonitrile 2,2,2-trifluoroacetate]	25 to 100	< 100	< 100
Cn1ccc([C@H]2CN(C3CCN(c4nnc(N)[nH]4)CC3)[C@@H](Cc3ccc(Cl)cc3)CO2)n1 [Example 9, 5-(4-((2R,5S)-5-(4-chlorobenzyl)-2-(1-methyl-1H-pyrazol-3-yl)morpholino)-piperidin-1-yl)-4H-1,2,4-triazol-3-amine 2,2,2-trifluoroacetate]	> 100	< 100	< 100
Cn1nccc1[C@H]1CN(C2CCN(c3nnc(N)[nH]3)CC2)[C@@H](Cc2ccc(Cl)cc2)CO1 [Example 10, 5-(4-((2R,5S)-5-(4-chlorobenzyl)-2-(1-methyl-1H-pyrazol-5-yl)morpholino)piperidin-1-yl)-4H-1,2,4-triazol-3-amine 2,2,2-trifluoroacetate]	> 100	< 100	< 100
Cc1cc([C@H]2CN(C3CCN(c4nnc(N)[nH]4)CC3)[C@@H](Cc3ccc(Cl)cc3)CO2)nn1C [Example 11, 5-(4-((2R,5S)-5-(4-chlorobenzyl)-2-(1,5-dimethyl-1H-pyrazol-3-yl)morpholino)-piperidin-1-yl)-4H-1,2,4-triazol-3-amine 2,2,2-trifluoroacetate]	> 100	< 100	< 100
Nc1nnc(N2CCC(N3C[C@H](c4ccn[nH]4)OC[C@@H]3Cc3ccc(Cl)cc3)CC2)[nH]1 [Example 12, 5-(4-((2R,5S)-5-(4-chlorobenzyl)-2-(1H-pyrazol-5-yl)morpholino)piperidin-1-yl)-4H-1,2,4-triazol-3-amine 2,2,2-trifluoroacetate]	> 100	< 100	< 100
Nc1nnc(N2CCC(N3C[C@H](Cn4cccn4)OC[C@@H]3Cc3ccc(Cl)cc3)CC2)[nH]1 [Example 13, 5-(4-((2R,5S)-2-((1H-pyrazol-1-yl)methyl)-5-(4-chlorobenzyl)morpholino)-piperidin-1-yl)-4H-1,2,4-triazol-3-amine 2,2,2-trifluoroacetate]	> 100	< 100	< 100
Nc1nnc(N2CCC(N3C[C@H](CC(F)(F)F)OC[C@@H]3Cc3ccc(Cl)cc3)CC2)[nH]1 [Example 14, 5-(4-((2S,5S)-5-(4-chlorobenzyl)-2-(2,2,2-trifluoroethyl)morpholino)piperidin-1-yl)-4H-1,2,4-triazol-3-amine 2,2,2-trifluoroacetate]	> 100	< 100	< 100
Nc1nnc(N2CCC(N3C[C@H](CN4CCOCC4)OC[C@@H]3Cc3ccc(Cl)cc3)CC2)[nH]1 [Example 15, 5-(4-((2S,5S)-5-(4-chlorobenzyl)-2-(morpholinomethyl)morpholino)piperidin-1-yl)-4H-1,2,4-triazol-3-amine 2,2,2-trifluoroacetate]	> 100	< 100	< 100
Nc1nnc(N2CCC(N3C[C@H]([C@H](O)C(F)(F)F)OC[C@@H]3Cc3ccc(Cl)cc3)CC2)[nH]1 [Example 16, (S)-1-((2R,5S)-4-(1-(5-amino-4H-1,2,4-triazol-3-yl)piperidin-4-yl)-5-(4-chloro-benzyl)morpholin-2-yl)-2,2,2-trifluoroethanol 2,2,2-trifluoroacetate]	> 100	< 100	< 100
Nc1nnc(N2CCC(N3C[C@H]([C@@H](O)C(F)(F)F)OC[C@@H]3Cc3ccc(Cl)cc3)CC2)[nH]1 [Example 17, (R)-1-((2R,5S)-4-(1-(5-amino-4H-1,2,4-triazol-3-yl)piperidin-4-yl)-5-(4-chlorobenzyl)morpholin-2-yl)-2,2,2-trifluoroethanol 2,2,2-trifluoroacetate]	25 to 100	< 100	< 100
Nc1nnc(N2CCC(N3C[C@H](Cn4ccnn4)OC[C@@H]3Cc3ccc(Cl)cc3)CC2)[nH]1 [Example 21, 5-(4-((2R,5S)-2-((1H-1,2,3-triazol-1-yl)methyl)-5-(4-chlorobenzyl)morpholino)-piperidin-1-yl)-4H-1,2,4-triazol-3-amine 2,2,2-trifluoroacetate]	25 to 100	< 100	< 100
Cc1cc([C@H]2CN(C3CCN(c4nnc(N)[nH]4)CC3)[C@@H](Cc3ccc(Cl)cc3)CO2)on1 [Example 22, 5-(4-((2R,5S)-5-(4-chlorobenzyl)-2-(3-methylisoxazol-5-yl)morpholino)piperidin-1-yl)-4H-1,2,4-triazol-3-amine 2,2,2-trifluoroacetate]	> 100	< 100	< 100
CC1(C)CC1NC(=O)[C@H]1CN(C2CCN(c3nnc(N)[nH]3)CC2)[C@@H](Cc2ccc(Cl)cc2)CO1 (stereo partly drawn) [Example 23, (2R,5S)-4-(1-(5-amino-4H-1,2,4-triazol-3-yl)piperidin-4-yl)-5-(4-chlorobenzyl)-N-(2,2-dimethylcyclopropyl)morpholine-2-carboxamide 2,2,2-trifluoroacetate]	> 100	< 100	< 100
Nc1nnc(N2CCC(N3C[C@H](C(=O)NC4CC4)OC[C@@H]3Cc3ccc(Cl)cc3)CC2)[nH]1 [Example 24, (2R,5S)-4-(1-(5-amino-4H-1,2,4-triazol-3-yl)piperidin-4-yl)-5-(4-chlorobenzyl)-N-cyclopropylmorpholine-2-carboxamide 2,2,2-trifluoroacetate]	> 100	< 100	< 100
Nc1nnc(N2CCC(N3C[C@H](C(=O)NCC(F)F)OC[C@@H]3Cc3ccc(Cl)cc3)CC2)[nH]1 [Example 25, (2R,5S)-4-(1-(5-amino-4H-1,2,4-triazol-3-yl)piperidin-4-yl)-5-(4-chlorobenzyl)-N-(2,2-difluoroethyl)morpholine-2-carboxamide 2,2,2-trifluoroacetate]	> 100	< 100	< 100
Nc1nnc(N2CCC(N3C[C@H](C(=O)NCC(F)(F)F)OC[C@@H]3Cc3ccc(Cl)cc3)CC2)[nH]1 [Example 26, (2R,5S)-4-(1-(5-amino-4H-1,2,4-triazol-3-yl)piperidin-4-yl)-5-(4-chlorobenzyl)-N-(2,2,2-trifluoroethyl)morpholine-2-carboxamide 2,2,2-trifluoroacetate]	> 100	< 100	100 to 1000
